Entries after “also recorded” stand apart in the source; their conditions may differ.
Legend:
freshly isolated ASC = test: Observation of aggregation of freshly isolated ASC after resuspension in delivery medium; assay type: cell-based, pig; details: pre-treating SVF with heparin before infusion
Method: Isolation of the adipose stromal-vascular fraction (SVF). Fat was isolated using equipment and reagents from TGI-100 kits (Tissue Genesis, Inc, Honolulu, Hi., USA) following the manufacturer's instructions, with modifications as necessary in order to process the subcutaneous pig fat. Briefly, the fat was finely minced in a sterile container before washing 3 times with the supplied buffer solution. The fat was transferred into 50 ml conical screw cap centrifuge tubes before adding 10 ml of filtered ADIPASE™ solution. The tissue was dissociated by incubation in an Enviro-Genie incubator shaker for 2.5 hours, instead of the manufacturer's recommended digestion time for human fat of 45 minutes. The stromal-vascular pellet was recovered by centrifugation, filtered serially through 100 μm then 40 μm diameter pore size polypropylene filters (FALCON®). Viable cell counts were obtained using a hemacytometer and staining was performed with Trypan blue. Only cells larger than approximately 8 μm in diameter were counted. The cells were resuspended in a 20 ml cell the supplied suspension medium immediately before delivery. In the ASC-H group, the suspension medium contained 50 U heparin/ml. The cells were continuously mixed gently by hand until loaded into the syringe for delivery.
Preparative yield of ASC. […]

ASCs = test: Aggregation of fresh SVF or cultured ASCs in suspension buffer; assay type: cell-based, porcine or human; details: for concentration dependence of inhibition of ASC aggregation: EDTA detached ASCs, 2 hours vigorous shaking
Method: SVF was isolated from either excised dorsal hump (porcine) or lipoaspirated subcutaneous (human) adipose tissues using reagents and protocols supplied by Tissue Genesis Inc. (TGI). Cells were used either fresh or after enrichment for stromal cells, containing adipose-derived stem cells (ADSC), by attachment to and growth on uncoated tissue culture plastic. Low passage (P1-P4) cultured ASCs were detached from plastic by 2 mM EDTA treatment. 2−3×10^6 fresh SVF or cultured ASCs were incubated for increasing times in 1 ml of TGI suspension buffer, containing human serum proteins, under varying conditions as indicated in Figure legends. Cell suspensions were vigorously rocked during incubation. At the times indicated the suspensions were observed macroscopically, noting aggregate size and number, as well as microscopically, to quantitate aggregates (defined as a tightly associated grouping of 4 or more cells) as well as individual cells.

ASC = ASC proliferation in presence of heparin; assay type: cell-based

Molecule: heparin
- aggregation and subsequent microinfarctions (freshly isolated ASC): substantially diminished
- aggregation at the highest concentration used (ASCs; 400 μg/ml): still persisted
- concentration dependence of inhibition of ASC aggregation (ASCs): dose dependent
- concentration dependence of inhibition of ASC aggregation (ASCs; listed as Heparin): concentration dependent
- most effective concentration used for inhibition of ASC aggregation (ASCs; equals 100 U/ml): 400 µg/mL
- aggregation of cells (ASCs; heparin 400 μg/ml final conc. in buffer): inhibits
- formation of aggregates of all sizes (ASCs; small 4-10 cells, large >10 cells, Image J counts): blocked
- ASC proliferation (ASC; highest concentration, 400 μg/ml): totally inhibited
- ASC proliferation (ASC; lowest concentration used, 50 μg/ml): inhibitory

Molecule: O=C(O)CN(CCN(CC(=O)O)CC(=O)O)CC(=O)O [EDTA, ethylenediaminetetra-acetic acid]
- effect of EDTA on aggregation with co-addition of Ca^2+ (ASCs; EDTA then 7 mM Ca^2+): reversed
- cell aggregation with EDTA in the buffer (ASCs; cultured ASCs, EDTA during incubation): inhibited; also recorded: blocked

Molecule: trypsin
- cell aggregation after trypsin pretreatment (ASCs; cultured ASCs, trypsin for 2 minutes): inhibited; also recorded: blocked

From US20110208162A1, “METHODS FOR PREVENTING AGGREGATION OF ADIPOSE STROMAL CELLS” (Indiana University Rsearch and Technology Corporation, priority 2008, published 2011)
